Data as given in US5929099A, “Pharmaceutical composition for inhibiting the growth of cancers” (Procter & Gamble Co., priority 1996, dated 1999).
In brackets after ≈: the same amount, converted by molar mass. Like-named read-outs stand apart in the source and are kept apart here.

Columns and labels:
[1] = tested on: HIV; assay: In vitro acute model for HIV, viral replication; format: cell-based; details: read-out: inhibited viral replication
Description: In an in vitro acute model for HIV carbendazim inhibited viral replication by 100% at 4 μg/ml and AZT inhibited viral replication by 98% at 1 μg/ml. Thiabendazole inhibited viral replication by 98% at 60 μg/ml.

[2] = tested on: breast tumor cells (MCF-7); assay: Related study, breast tumor cells, optical density (Table 3); format: cell-based; details: for Optical Density: 0-Control 0.245
Text: (§1) Table 3 summarizes the results

[3] = tested on: colon tumor cells (HT-29); assay: Related study, colon tumor cells, optical density (Table 3); format: cell-based, human; details: for Optical Density: 0-Control 0.398
Text: as §1

[4] = tested on: lung tumor cells (A-549); assay: Related study, lung tumor cells, optical density (Table 3); format: cell-based, human; details: for Optical Density: 0-Control 0.600
Text: as §1

[5] = tested on: HIV-1 in chronic infected U1 cells (HIV monocytes); assay: HIV chronic study, monocyte HIV replication; format: cell-based; details: Human immunodeficiency virus 1, Monocyte; 60 μg/ml; read-out: suppressed replication in the HIV monocytes
Description: (§2) These cells were treated with test samples.

[6] = tested on: HIV-1 in chronic infected ACH-2 cells (T-cell); assay: HIV chronic study, T-cell HIV replication; format: cell-based; details: Human immunodeficiency virus 1, ACH-2; 60 μg/ml; increase; read-out: T-cell HIV replication was increased
Description: as §2

[7] = tested on: A549 lung tumor cells; assay: MTT cell viability, lung tumor cells (Table 1); format: cell-based; details: Homo sapiens, A549, 120 h, approx. 5 days, read-out: EC-50 Result
Description: (§3) The following cell culture tests were performed to test the toxicity of the benzimidazole compounds on colon, breast and lung human tumor cells. The viability of the cells were tested by looking at MTT (3-[4,5-dimethylthiazol-2-yl]-2,5-diphenyltetrazolium bromide) reduction. MTT assay is a well known measure of cell viability.
(§4) The colon tumor cells (HT29 from American Type Culture Collection (ATCC)) and the breast cells (MX1 from cell lines from ATCC) were cultured in Eagle's Miminal Essential Medium with 10% fetal bovine serum. The lung tumor cells (A549 from ATCC cell lines) were cultured in Ham's F12 medium with 10% fetal bovine serum.
(§5) The tumor cells were passaged and seeded into culture flasks at the desired cell densities. The culture medium was decanted and the cell sheets were washed twice with phosphate buffered saline (PBS). The cells were trypsinized and triturated prior to seeding the flasks. Unless otherwise indicated the cultures were incubated at 37±1° C. in a humidified atmosphere of 5±1% carbon dioxide in air. The cultures were incubated until they were 50-80% confluent.
(§6) The cells were subcultured when the flasks were subconfluent. The medium was aspirated from the flasks and the cell sheets rinsed twice with PBS. Next, the Trypsin Solution was added to each flask to cover the cell sheet. The Trypsin Solution was removed after 30-60 seconds and the flasks were incubated at room temperature for two to six minutes. When 90% of the cells became dislodged, growth medium was added. The cells were removed by trituration and transferred to a sterile centrifuge tube. The concentration of cells in the suspension was determined, and an appropriate dilution was made to obtain a density of 5000 cells/ml. The cells were subcultured into the designated wells of the 96-well bioassay plates (200 microliter cell suspension per well). PBS was added to all the remaining wells to maintain humidity. The plates were then incubated overnight before test article treatment.
(§7) Each dose of test article was tested by treating quadruplicate wells of cultures with 100 microliter of each dilution. Those wells designated as solvent controls received an additional 100 microliter of methanol control; negative controls wells received an additional 100 microliters of treatment medium. PBS was added to the remaining wells not treated with test article or medium. The plates were then incubated for approximately 5 days.
(§8) At the end of the 5 day incubation, each dose group was examined microscopically to assess toxicity. A 0.5 mg/ml dilution of MTT was made in treatment medium, and the dilution was filtered through a 0.45 micrometer filter to remove undissolved crystals. The medium was decanted from the wells of the bioassy plates. Immediately thereafter, […] of the filtered MTT solution was added to all test wells except for the two untreated blank test wells. The two blank wells received 200 microliters of treatment medium. The plates were returned to the incubator for about 3 hours. After incubation, the MTT containing medium was decanted. […] was added to each well and the plates were shaken at room temperature for about 2 hours.
(§9) The absorbance at 550 mn (OD550) of each well was measured with a Molecular Devices (Menlo Park, Calif.) VMax plate reader.
(§10) The mean OD550 of the solvent control wells and that of each test article dilution, and that of each of the blank wells and the positive control were calculated. The mean OD550 of the blank wells was subtracted from the mean of the solvent control wells, and test article wells, respectively to give the corresponding mean OD550. [formula]
(§11) Dose response curves were prepared as semi-log plots with % of control on the ordinate (linear) and the test article concentration on the abscissa (logarithmic). The EC50 was interpolated from the plots for each test article.
(§12) For the test articles administered in methanol, separate responses were prepared to correct for the methanol data. […]

[8] = tested on: normal healthy cells; assay: Toxicity to normal healthy cells, overall comparison; format: cell-based; details: versus adriamycin
Text: (§13) In normal healthy cells, the following results were obtained.

[9] = tested on: HT29 colon tumor cells; assay: MTT cell viability, colon tumor cells (Table 1); format: cell-based; details: Homo sapiens, HT-29, 120 h, approx. 5 days, read-out: EC-50 Result
Description: as §3, §4, §5, §6, §7, §8, §9, §10, §11, §12

[10] = tested on: MX1 breast tumor cells; assay: MTT cell viability, breast tumor cells (Table 1); format: cell-based; details: Homo sapiens, 120 h, approx. 5 days, read-out: EC-50 Result
Description: as §3, §4, §5, §6, §7, §8, §9, §10, §11, §12

[11] = Toxicity to normal healthy cells (Table 2); format: cell-based; details: read-out: EC-50 (the source's name)
Text: The EC50 is the concentration at which one half of the cells are killed.
as §13

[12] = tested on: MX1 breast cancer tumors; assay: Mouse model for breast cancer, subcutaneous tumor growth; format: in vivo; details: 500 mg/kg; MX1 implanted subcutaneously
Description: (§14) In a mouse model for breast, lung and colon cancer Carbendazim slowed tumor growth. MX1 breast cancer tumors implanted subcutaneously under the mice skin were treated with 500 mg/kg of Carbendazim. Tumor growth was slowed by 42%. Carbendazim slowed tumor growth in lung A549 tumors implanted subcutaneously under the mice skin by 57% at the same dose. In a screening test of HT29 tumors implanted subcutaneously under the mice skin, tumor growth was slowed 54% at 2500 mg/kg dose of Carbendazim.

[13] = tested on: melanoma, B 16; assay: In vivo mouse model for melanoma, life span
[14] = tested on: leukemia, P388; assay: In vivo mouse model for leukemia, life span
[15] = tested on: HT29 tumors; assay: Mouse model for colon cancer, subcutaneous tumor growth; format: in vivo; details: 2500 mg/kg; HT29 implanted subcutaneously; screening test
Description: as §14

[16] = tested on: lung A549 tumors; assay: Mouse model for lung cancer, subcutaneous tumor growth; format: in vivo; details: same dose (500 mg/kg); A549 implanted subcutaneously
Description: as §14

[17] = bronchial cells, Broncheal Cells, first value
[18] = bronchial cells, Broncheal Cells, second value
[19] = kerotinoyle cells, second value

Q: Which results are given for `c1ccc2[nH]c(-c3cscn3)nc2c1` [Thiabendazole, 2-(4-thiazolyl)-1 H-benzimidazole]?
A: inhibition at 60 µg/mL ([1]; Human immunodeficiency virus 1, 60 μg/ml): 98%; killing of tumor cells [2]: effectively killed these cells; Optical Density ([2]; 0.87 ppm): 0.507; Optical Density ([2]; 3.46 ppm): 0.466; Optical Density ([2]; 17.3 ppm): 0.258; Optical Density ([2]; 35 ppm): 0.025; Optical Density ([2]; 173 ppm): 0.007; killing of tumor cells [3]: effectively killed these cells; Optical Density ([3]; 0.87 ppm): 0.852; Optical Density ([3]; 3.46 ppm): 0.713; Optical Density ([3]; 17.3 ppm): 0.204; Optical Density ([3]; 35 ppm): 0.011; Optical Density ([3]; 173 ppm): 0.005; killing of tumor cells [4]: effectively killed these cells; Optical Density ([4]; 0.87 ppm): 1.32; Optical Density ([4]; 3.46 ppm): 1.12; Optical Density ([4]; 17.3 ppm): 0.851; Optical Density ([4]; 35 ppm): 0.411; Optical Density ([4]; 173 ppm): 0.007; inhibition at 60 µg/mL [5]: 74%; activation at 60 µg/mL [6]: 26%

Q: Which results are given for `CCCCNC(=O)n1c(NC(=O)OC)nc2ccccc21` [benomyl, methyl 1-(butylcarbamoyl)2-benzimidazolecarbamate]?
A: IC50 ([7]; A549, first column): 0.98 µg/mL (≈ 3.38 µM); IC50 ([7]; A549, second column): 1.02 µg/mL (≈ 3.51 µM); toxicity to normal healthy cells relative to adriamycin [8]: much less toxic to normal healthy cells than adriamycin; IC50 ([9]; HT29, first column): 0.742 µg/mL (≈ 2.56 µM); IC50 ([9]; HT29, second column): 0.747 µg/mL (≈ 2.57 µM); IC50 ([10]; MX1, first column): 1.42 µg/mL (≈ 4.89 µM); IC50 ([10]; MX1, second column): 2.42 µg/mL (≈ 8.34 µM); CC50 [11, 17]: 0.728 µg/mL (≈ 2.51 µM); CC50 [11, 18]: 0.682 µg/mL (≈ 2.35 µM); CC50 ([11]; fibroblasts, first value): 3.24 µg/mL (≈ 11.2 µM); CC50 ([11]; fibroblasts, second value): 2.81 µg/mL (≈ 9.68 µM); CC50 ([11]; kerotinoyle cells, first value): 3.26 µg/mL (≈ 11.2 µM); CC50 [11, 19]: 2.4 µg/mL (≈ 8.27 µM)

Q: For `COC(=O)Nc1nc2ccccc2[nH]1` [carbendazim, methyl 2-benzimidazole carbamate], which inhibition at 4 µg/mL ([1]; Human immunodeficiency virus 1, 4 μg/ml) is on record?
A: The inhibition at 4 µg/mL was 100%.

Q: What about the “Tumor growth was slowed by” value [12] of the same compound?
A: The value was 42%.

Q: What about the “increased the life span versus control” value ([13]; 1000 mg/kg) of the same compound?
A: The value was 131%.

Q: And the “increased the life span versus control” value ([13]; 2000 mg/kg)?
A: Its value is 163%.

Q: And the “increased the life span versus control” value ([13]; 4000 mg/kg)?
A: The value was 187%.

Q: What about the IC50 ([7]; A549, first column) of the same compound?
A: Its IC50 is 0.856 µg/mL (≈ 4.48 µM).

Q: What about the IC50 ([7]; A549, second column) of the same compound?
A: Its IC50 is 0.836 µg/mL (≈ 4.37 µM).

Q: What about the “toxicity to normal healthy cells relative to adriamycin” value [8] of the same compound?
A: Its value is “much less toxic to normal healthy cells than adriamycin”.

Q: What about the IC50 ([9]; HT29, first column) of the same compound?
A: Its IC50 is 0.621 µg/mL (≈ 3.25 µM).

Q: What about the IC50 ([9]; HT29, second column) of the same compound?
A: The IC50 was 0.662 µg/mL (≈ 3.46 µM).

Q: And the “increased the life span of the mice versus control” value ([14]; 1000 mg/kg)?
A: The value was 129%.

Q: And the “increased the life span of the mice versus control” value ([14]; 2000 mg/kg)?
A: Its value is 148%.

Q: And the “increased the life span of the mice versus control” value ([14]; 4000 mg/kg)?
A: Its value is 189%.

Q: What about the IC50 ([10]; MX1, first column) of the same compound?
A: The IC50 was 0.829 µg/mL (≈ 4.34 µM).

Q: And the IC50 ([10]; MX1, second column)?
A: The IC50 was 0.856 µg/mL (≈ 4.48 µM).

Q: What about the CC50 [11, 17] of the same compound?
A: Its CC50 is 0.32 µg/mL (≈ 1.67 µM).

Q: And the CC50 [11, 18]?
A: The CC50 was 0.506 µg/mL (≈ 2.65 µM).

Q: And the CC50 ([11]; fibroblasts, first value)?
A: Its CC50 is 1.52 µg/mL (≈ 7.95 µM).

Q: And the CC50 ([11]; fibroblasts, second value)?
A: Its CC50 is 1.42 µg/mL (≈ 7.43 µM).

Q: And the CC50 ([11]; kerotinoyle cells, first value)?
A: Its CC50 is 0.752 µg/mL (≈ 3.93 µM).

Q: And the CC50 [11, 19]?
A: Its CC50 is 0.822 µg/mL (≈ 4.3 µM).

Q: And the “tumor growth was slowed” value [15]?
A: Its value is 54%.

Q: What about the “slowed tumor growth by” value [16] of the same compound?
A: The value was 57%.
